For one data set, the target named is T1, PI3Kα (Homo sapiens, UniProt P42336).
T1 construct: purchased Invitrogen
In words: In vitro PI3Kα enzymatic assay (ADP-Glo / Kinase-Glo, ATP 25 μM). In kind it is biochemical. The note with it: ATP 25 μM. The protocol: To screen the inhibitory activity of the target compounds against PI3Kα, the Kinase-Glo™ assay with ATP at 25 μM was utilised with PIK-75 as positive control. We chose to explore the SARs at three positions on the Imidazo[1,2-a]pyridine core. To start with, a set of 8-position modifications were prepared while keeping the morpholinyl amide substituent on 2-position fixed, since it allowed quick structure − activity profiling via coupling reactions of bromide with aryl borates or boronic acids. […] We then turned our attention back to the phenyl substituents.
Briefly, the compound, PI3K enzyme (PI3Kα from Invitrogen), the PIP2 (Life Technologies) substrate, and ATP (25 μM, Sigma) were diluted in kinase buffer to the indicated concentrations. The assay plate was covered and incubated at room temperature for 1 h. Then, the Kinase-Glo reagent (Promega) was added to the PI3Kα plate to stop the reaction, mixed briefly with centrifuge, shaken slowly on the shaker and then equilibrate for 120 min. Finally, add Kinase detection reagent to each well, shake 1 min, equilibrate for 30 min before reading on a plate reader for luminescence. The data were collected on Envision and presented in Excel. IC50 values were calculated from the inhibition curves.
A general note: In ADP-Glo the light output rises with the ADP produced.

The test system of another data set is SKOV-3. In words: Cell proliferation assay (CellTiter-Glo), SKOV-3. In kind it is cell-based. Conditions: Homo sapiens, SK-OV-3; 72 h exposure; mean ± SD of two experiments. The method, then:
(§1) Given the desirable enzyme activity profile, these compounds were further assayed for their antiproliferative activities against five independent human tumour cell line collections harbouring PIK3CA mutation, including human ovarian cancer cell line SKOV-3, human breast cancer T47D and MCF-7, human lung cancer H1975 and H460. […] In general, the cellular activity of tested derivatives corrected with their effects on kinase activity.
(§2) All target compounds were evaluated for antiproliferative potency against SKOV-3, T47D,NCI-H1975, NCI-H460,and MCF-7 tumour cell lines using a CellTiter-Glo® Luminescent Cell Viability Assay. The human tumour cell lines used were obtained from the ATCC or Shanghai ZhongQiaoXinZhou Biotech. All the mediums and FBS were Gibco. T47D, H1975 and NCI-H460 tumour cells were cultured in RPMI1640 medium supplemented with 10% FBS. SKOV-3 was cultured in McCoy’s 5 A medium supplemented with 10%FBS. The day before treatment with compounds, cells were seeded at a density of 2000 or 5000 in each well of a 96-well plate. The tumour cells were then treated with 3-fold serial diluted compound or DMSO control in the incubator at 37 °C and 5% CO2 for 3 days, prior to the addition of CellTiter-Glo reagents (Promega) and reading of luminescence using a PerkinElmer Envision plate reader. Data were analysed using GraphPad Prism 7.0.

Another data set deals with T47D. The data set can be described thus: Cell proliferation assay (CellTiter-Glo), T47D. The data set is classed as cell-based. Conditions: Homo sapiens, 72 h exposure, mean ± SD of two experiments. The protocol: as §1, §2
Background: In ATP-based viability assays light output follows the ATP content of the culture.

In the next data set the test system is MCF-7. The data set can be described thus: Cell proliferation assay (CellTiter-Glo), MCF-7. In kind it is cell-based. Conditions: Homo sapiens, MCF7; 72 h exposure; mean ± SD of two experiments. The method, then: as §1, §2
The next data set relates to T47D cells. The data set can be described thus: Apoptosis analysis, annexin V/7-AAD flow cytometry. In kind it is cell-based, human. Conditions: 50 μM, 24 h. The protocol:
Considering compound 35 was most sensitive in T47D cells, we decided to get some mechanistic insight into the mode of action in T47D cell line. As such, the annexin V/7-AAD staining and cell cycle phase distribution have been carried out. […] Furthermore, T47D cells were also treated with different concentrations of 35, and the percentage of apoptotic cells was measured.
For cell cycle analysis, T47D cell (1 × 10^6) were seeded in 6-well plates overnight and treated with different concentrations of compound 35 and DMSO control on the next day. After 24 h, the cells were collected by EDTA-free trypsinization, centrifuged at 1500 rpm for 5 min, and fixed in 75% ethanol at −20 °C for 1 h. The cells were then centrifuged at 2000 rpm for 5 min, resuspended in 500 µL PI/Rnase Staining Buffer, incubated for 30 min at room temperature, and analysed using flow cytometry. The data were analysed using Modfit software. For cell apoptosis analysis, T47D cell were seeded in 6 well-plates and treated with DMSO or compound 35 for 24 h. The treated cells were collected and washed with cold PBS for three times, resuspended in 185 µL binding buffer containing 5 μL Annexin V-FITC Apoptosis Detection Kit and 10 μL 7-AAD Viability Staining Solution for 15 min at room temperature in the dark. Apoptotic cells were analysed by flow cytometer.
A general note: Flow cytometry measures light scatter and fluorescence of single cells or particles in a stream.

A short description of data set [1]: Liver microsomal stability assay, RLM. The data set is classed as in vitro ADME, rat. The protocol:
The metabolic stability of compound 35 was determined in human or SD rat liver microsomes, with and without the NADPH regenerating system. Briefly, compound 35 was incubated with microsomes (human microsome, CORNING, lot No. 38296; rat microsome, Xenotech, Lot No. 2110178) (0.5 mg protein/mL) at 1 μM at 37 °C in potassium phosphate buffer (100 mM at pH 7.4 with 10 mM MgCl2). The reactions were initiated by adding prewarmed cofactors (1 mmol NADPH). After incubation for different times (0, 5, 10, 20, 30, and 60 min) at 37 °C, cold acetonitrile containing 200 ng/mL tolbutamide and 200 ng/mL labetalol as internal standards was added to precipitate the protein. Then, the samples were centrifuged, and the supernatants were transferred into HPLC water, mixed by plate shaker for 10 min prior to LC − MS/MS analysis.

The nature of data set [2]: Parallel artificial membrane permeability assay (Egg-PAMPA). In kind it is in vitro ADME. Conditions: incubation 4 h; for Papp at 4 h, 10 μM: PAMPA. The method, then:
10.0 μM donor solution (5% DMSO) was prepared by diluting of working solution with PBS. The donor solution was added to each well of the donor plate, whose PVDF membrane was precoated with 5 µL of 1% lecithin/dodecane mixture. Duplicates were prepared.Then, PBS was added to each well of the PTFE acceptor plate. The donor plate and acceptor plate were combined and incubated for 4 h at room temperature with shaking at 300 rpm. Acceptor samples and donor samples were prepared and analysed by LC-MS/MS.

The next data set deals with T2, CYP2C9 (Homo sapiens, UniProt P11712).
T2 construct: tissue Lot No. 38292; host or cells: human liver microsomes
T2 sequence (P11712 whole entry): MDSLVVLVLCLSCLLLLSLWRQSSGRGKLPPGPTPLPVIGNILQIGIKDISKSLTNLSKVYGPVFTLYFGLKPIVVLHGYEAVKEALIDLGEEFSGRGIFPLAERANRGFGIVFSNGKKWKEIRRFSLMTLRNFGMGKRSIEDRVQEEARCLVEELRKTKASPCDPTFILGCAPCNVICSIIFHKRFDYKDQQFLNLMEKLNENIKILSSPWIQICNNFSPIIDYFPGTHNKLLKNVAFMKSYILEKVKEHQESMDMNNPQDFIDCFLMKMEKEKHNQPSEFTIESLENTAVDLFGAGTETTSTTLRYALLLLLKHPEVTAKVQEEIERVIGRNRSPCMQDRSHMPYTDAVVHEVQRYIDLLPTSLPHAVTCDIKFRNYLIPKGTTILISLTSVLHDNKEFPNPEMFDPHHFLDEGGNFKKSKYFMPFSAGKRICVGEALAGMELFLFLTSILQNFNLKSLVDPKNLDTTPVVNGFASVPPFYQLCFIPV
In words: CYP450 inhibition assay in human liver microsomes. In kind it is in vitro ADME. The note with it: 10 μM. The method, then:
Cytochrome P450 inhibition was evaluated in human liver microsomes (0.253 mg/mL, Lot No. 38292) using five specific probe substrates (CYP1A2, 10 μM phenacetin; CYP2D6, 5 μM dextromethorphan; and CYP3A4, 2 μM midazolam; 2C9, 5 μM Diclofenac; 2C19, 30 μM S-mephenytoin) and positive control in the presence of multiple concentrations of the test compound. After pre-warm at 37 °C for 10 min, the reaction was initiated by the addition of NADPH. The mixture was incubated at 37 °C for 10 min, terminated by the addition of cold stop solution (200 ng/mL tolbutamide and 200 ng/mL labetalol in acetonitrile). The samples were centrifuged, and the supernatants were analysed by LC − MS/MS.

Data on 1 molecule can be found in publication PMC9858543, “Design, synthesis and evaluation of 2, 6, 8-substituted Imidazopyridine derivatives as potent PI3Kα inhibitors” (Journal of Enzyme Inhibition and Medicinal Chemistry, 2023).

Where two headings read alike, the source gives them in different places.

T1 sequence (P42336 whole entry): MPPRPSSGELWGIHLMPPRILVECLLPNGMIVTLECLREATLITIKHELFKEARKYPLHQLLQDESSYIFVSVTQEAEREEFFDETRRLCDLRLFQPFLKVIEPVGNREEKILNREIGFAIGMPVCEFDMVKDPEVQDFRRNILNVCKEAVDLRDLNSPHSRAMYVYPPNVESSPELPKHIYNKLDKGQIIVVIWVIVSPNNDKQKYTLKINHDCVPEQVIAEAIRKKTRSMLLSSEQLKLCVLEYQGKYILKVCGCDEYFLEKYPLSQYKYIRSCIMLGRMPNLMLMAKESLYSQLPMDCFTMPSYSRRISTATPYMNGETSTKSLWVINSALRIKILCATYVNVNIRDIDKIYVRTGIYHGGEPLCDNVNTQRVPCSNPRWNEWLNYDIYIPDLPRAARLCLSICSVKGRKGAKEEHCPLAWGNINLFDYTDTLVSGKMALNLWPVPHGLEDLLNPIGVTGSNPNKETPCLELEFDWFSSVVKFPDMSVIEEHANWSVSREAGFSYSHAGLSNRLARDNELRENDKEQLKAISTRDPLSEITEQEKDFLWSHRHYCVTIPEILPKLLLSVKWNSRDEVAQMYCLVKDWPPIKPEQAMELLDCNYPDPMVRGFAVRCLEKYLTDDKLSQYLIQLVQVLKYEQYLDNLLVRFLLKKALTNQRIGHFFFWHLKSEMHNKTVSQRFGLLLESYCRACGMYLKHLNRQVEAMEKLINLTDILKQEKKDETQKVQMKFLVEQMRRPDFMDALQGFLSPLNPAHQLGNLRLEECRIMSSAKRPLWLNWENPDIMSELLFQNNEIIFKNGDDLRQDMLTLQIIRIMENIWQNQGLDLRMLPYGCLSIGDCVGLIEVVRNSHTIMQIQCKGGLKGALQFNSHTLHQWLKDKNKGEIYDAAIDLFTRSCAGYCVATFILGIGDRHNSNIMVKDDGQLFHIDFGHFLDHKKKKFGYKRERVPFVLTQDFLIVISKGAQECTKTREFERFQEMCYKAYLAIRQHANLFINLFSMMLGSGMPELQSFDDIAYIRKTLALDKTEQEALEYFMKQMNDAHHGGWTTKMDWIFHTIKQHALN
T1 sequence (P27986 whole entry partner): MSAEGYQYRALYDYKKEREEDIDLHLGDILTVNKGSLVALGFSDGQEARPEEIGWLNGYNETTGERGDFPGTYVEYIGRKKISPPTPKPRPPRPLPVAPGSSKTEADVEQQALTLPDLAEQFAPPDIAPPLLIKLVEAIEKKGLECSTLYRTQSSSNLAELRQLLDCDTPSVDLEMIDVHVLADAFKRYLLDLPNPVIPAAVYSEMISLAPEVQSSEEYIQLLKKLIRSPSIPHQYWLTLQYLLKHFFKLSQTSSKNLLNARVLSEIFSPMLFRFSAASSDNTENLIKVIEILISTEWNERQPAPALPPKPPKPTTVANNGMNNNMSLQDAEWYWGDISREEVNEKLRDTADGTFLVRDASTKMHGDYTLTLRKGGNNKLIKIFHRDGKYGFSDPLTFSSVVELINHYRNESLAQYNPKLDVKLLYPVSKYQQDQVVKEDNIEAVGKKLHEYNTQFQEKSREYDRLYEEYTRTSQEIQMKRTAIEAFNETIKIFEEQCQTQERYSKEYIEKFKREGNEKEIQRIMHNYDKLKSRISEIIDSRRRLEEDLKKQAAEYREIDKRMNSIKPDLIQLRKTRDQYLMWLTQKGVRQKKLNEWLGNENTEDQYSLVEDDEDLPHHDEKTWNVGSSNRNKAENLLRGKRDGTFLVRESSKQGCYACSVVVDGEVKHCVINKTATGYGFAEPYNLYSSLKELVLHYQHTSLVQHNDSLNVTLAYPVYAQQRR

What is called IC50 is the midpoint of a concentration-inhibition curve. Low values mean greater potency in that assay, high ones weaker potency in that assay. As a reminder, the inhibition is the change of the read-out against control, counted positive when it falls. `COc1ncc(-c2cc(C)cn3cc(C(=O)N4CCCC4)nc23)cc1NS(=O)(=O)c1ccc(F)cc1` [Compound 35, 4-Fluoro-N-(2-methoxy-5–(6-methyl-2-(pyrrolidine-1-carbonyl)Imidazo[1,2-a]pyridin-8-yl)pyridin-3-yl)benzenesulfonamide]: the IC50 at PI3Kα (mean ± SD of two experiments) amounted to 0.15 ± 0.02 µM; in the data set with SKOV-3, 26.6 ± 1.3 µM; with T47D, 7.9 ± 0.8 µM; in the data set on MCF-7 it was 9.4 ± 0.6 µM. On PI3Kα (PI3Kα, compound 10 μM, mean ± SD of three determinations, read-out: % Inhibition at 10 μM), the inhibition at 10 µM was greater than 85%. The “Q2 cells (late apoptosis), annexin V/7-AAD” value in the data set on T47D cells is reported as 21.8%. In addition, the “Q3 cells (early apoptosis), annexin V/7-AAD” value with T47D cells turned out to be 1.51%. For the same molecule, the “Remaining (T = 60min)” value in data set [1] (1 μM, 60 min) is listed as 31.5%. Moreover, the microsomal CLint at 1 μM in data set [1] (SD, rat, rat liver microsomes, pH 7.4, 0.5 mg protein/mL, read-out: Metabolic stability CL int) was determined as 43.4 µL/min/mg. For the same molecule, the half-life at 1 μM in data set [1] (SD, rat, rat liver microsomes, pH 7.4, 0.5 mg protein/mL, read-out: Metabolic stability T1/2) stood at 31.9 min. In addition, the “Mean Pe” value in data set [2] (10 μM) is recorded as “higher than 10 nm/s”. For the same molecule, the Papp at 4 h, 10 μM in data set [2] (read-out: Mean Pe) was 1.54 ×10⁻⁶ cm/s; in data set [2] (read-out: Permeability) it was greater than 1 ×10⁻⁶ cm/s. Moreover, the CYP2C9 % inhibition on CYP2C9 stood at 30.6%.
